Results reported in ChEMBL document CHEMBL2375251, “Anticancer activity of novel hybrid molecules containing 5-benzylidene thiazolidine-2,4-dione” (Eur J Med Chem, 2013).
Calls of active or inactive are those of the source. The calls are words filed in the database; no cut-off is given here.

Assays:
[1] = tested on: MOLT-3; assay: Induction of apoptosis in human MOLT3 cells assessed as caspase 3/7-mediated DEVD-pNA cleavage at 1 uM after 6 hrs by colorimetric assay relative to control; assay type: functional
[2] = tested on: U-937; assay: Induction of apoptosis in human U937 cells assessed as caspase 3/7-mediated DEVD-pNA cleavage at 1 uM after 6 hrs by colorimetric assay relative to control; assay type: functional
[3] = tested on: HL-60; assay: Induction of apoptosis in human HL60 cells assessed as caspase 3/7-mediated DEVD-pNA cleavage at 1 uM after 6 hrs by colorimetric assay relative to control; assay type: functional
[4] = tested on: MOLT-3; assay: Induction of apoptosis in human MOLT3 cells assessed as caspase9-mediated LEHD-pNA cleavage at 1 uM after 6 hrs by colorimetric assay; assay type: functional, cell-based
[5] = tested on: U-937; assay: Induction of apoptosis in human U937 cells assessed as caspase9-mediated LEHD-pNA cleavage at 1 uM after 6 hrs by colorimetric assay; assay type: functional, cell-based
[6] = tested on: HL-60; assay: Induction of apoptosis in human HL60 cells assessed as caspase9-mediated LEHD-pNA cleavage at 1 uM after 6 hrs by colorimetric assay; assay type: functional, cell-based
[7] = tested on: MOLT-3; assay: Induction of apoptosis in human MOLT3 cells assessed as caspase 8-mediated IETD-pNA cleavage at 1 uM after 6 hrs by colorimetric assay; assay type: functional, cell-based
[8] = tested on: U-937; assay: Induction of apoptosis in human U937 cells assessed as caspase 8-mediated IETD-pNA cleavage at 1 uM after 6 hrs by colorimetric assay; assay type: functional, cell-based
[9] = tested on: MOLT-3; assay: Induction of apoptosis in human MOLT3 cells assessed as caspase 3/7-mediated DEVD-pNA cleavage at 1 uM after 6 hrs by colorimetric assay; assay type: functional, cell-based
[10] = tested on: HL-60; assay: Induction of apoptosis in human HL60 cells assessed as caspase 8-mediated IETD-pNA cleavage at 1 uM after 6 hrs by colorimetric assay; assay type: functional, cell-based
[11] = tested on: U-937; assay: Induction of apoptosis in human U937 cells assessed as caspase 3/7-mediated DEVD-pNA cleavage at 1 uM after 6 hrs by colorimetric assay; assay type: functional, cell-based
[12] = tested on: HL-60; assay: Induction of apoptosis in human HL60 cells assessed as caspase 3/7-mediated DEVD-pNA cleavage at 1 uM after 6 hrs by colorimetric assay; assay type: functional, cell-based
[13] = tested on: MOLT-3; assay: Induction of apoptosis in human MOLT3 cells assessed as cytochrome c release at 1 uM after 6 hrs by Western blot analysis; assay type: functional, cell-based
[14] = tested on: U-937; assay: Induction of apoptosis in human U937 cells assessed as cytochrome c release at 1 uM after 6 hrs by Western blot analysis; assay type: functional, cell-based
[15] = tested on: HL-60; assay: Induction of apoptosis in human HL60 cells assessed as cytochrome c release at 1 uM after 6 hrs by Western blot analysis; assay type: functional, cell-based
[16] = tested on: MOLT-3; assay: Induction of apoptosis in human MOLT3 cells assessed as caspase-3-mediated PARP hydrolysis at 1 uM after 6 hrs by Western blot analysis; assay type: functional, cell-based
[17] = tested on: U-937; assay: Induction of apoptosis in human U937 cells assessed as caspase-3-mediated PARP hydrolysis at 1 uM after 6 hrs by Western blot analysis; assay type: functional, cell-based
[18] = tested on: HL-60; assay: Induction of apoptosis in human HL60 cells assessed as caspase-3-mediated PARP hydrolysis at 1 uM after 6 hrs by Western blot analysis; assay type: functional, cell-based
[19] = tested on: MOLT-3; assay: Induction of apoptosis in human MOLT3 cells assessed as procaspase-9 activation at 1 uM after 6 hrs by Western blot analysis; assay type: functional, cell-based
[20] = tested on: U-937; assay: Induction of apoptosis in human U937 cells assessed as procaspase-9 activation at 1 uM after 6 hrs by Western blot analysis; assay type: functional, cell-based
[21] = tested on: HL-60; assay: Induction of apoptosis in human HL60 cells assessed as procaspase-9 activation at 1 uM after 6 hrs by Western blot analysis; assay type: functional, cell-based
[22] = tested on: MOLT-3; assay: Induction of apoptosis in human MOLT3 cells assessed as procaspase-8 activation at 1 uM after 6 hrs by Western blot analysis; assay type: functional, cell-based
[23] = tested on: U-937; assay: Induction of apoptosis in human U937 cells assessed as procaspase-8 activation at 1 uM after 6 hrs by Western blot analysis; assay type: functional, cell-based
[24] = tested on: HL-60; assay: Induction of apoptosis in human HL60 cells assessed as procaspase-8 activation at 1 uM after 6 hrs by Western blot analysis; assay type: functional, cell-based
[25] = tested on: MOLT-3; assay: Induction of apoptosis in human MOLT3 cells assessed as procaspase-7 activation at 1 uM after 6 hrs by Western blot analysis; assay type: functional, cell-based
[26] = tested on: U-937; assay: Induction of apoptosis in human U937 cells assessed as procaspase-6 activation at 1 uM after 6 hrs by Western blot analysis; assay type: functional, cell-based
[27] = tested on: HL-60; assay: Induction of apoptosis in human HL60 cells assessed as procaspase-6 activation at 1 uM after 6 hrs by Western blot analysis; assay type: functional, cell-based
[28] = tested on: MOLT-3; assay: Induction of apoptosis in human MOLT3 cells assessed as procaspase-3 activation at 1 uM after 6 hrs by Western blot analysis; assay type: functional, cell-based
[29] = tested on: U-937; assay: Induction of apoptosis in human U937 cells assessed as procaspase-3 activation at 1 uM after 6 hrs by Western blot analysis; assay type: functional, cell-based
[30] = tested on: HL-60; assay: Induction of apoptosis in human HL60 cells assessed as procaspase-3 activation at 1 uM after 6 hrs by Western blot analysis; assay type: functional, cell-based
[31] = tested on: HL-60; assay: Induction of apoptosis in human HL60 cells assessed as hypodiploid DNA content at 3 uM after 6 hrs by propidium iodide staining-based flow cytometry relative to control; assay type: functional
[32] = tested on: MOLT-3; assay: Induction of apoptosis in human MOLT3 cells assessed as chromatin hydrolysis at 1 uM after 6 hrs by agarose gel electrophoresis; assay type: functional, cell-based
[33] = tested on: U-937; assay: Induction of apoptosis in human U937 cells assessed as chromatin hydrolysis at 1 uM after 6 hrs by agarose gel electrophoresis; assay type: functional, cell-based
[34] = tested on: HL-60; assay: Induction of apoptosis in human HL60 cells assessed as chromatin hydrolysis at 1 uM after 6 hrs by agarose gel electrophoresis; assay type: functional, cell-based
[35] = tested on: U-937; assay: Induction of apoptosis in human U937 cells assessed as appearance of apoptotic bodies at 1 uM after 6 hrs by Hoechst 33258 staining based fluorescence microscopy; assay type: functional, cell-based
[36] = tested on: U-937; assay: Induction of apoptosis in human U937 cells assessed as chromatin condensation at 1 uM after 6 hrs by Hoechst 33258 staining based fluorescence microscopy; assay type: functional, cell-based
[37] = tested on: HL-60; assay: Induction of apoptosis in human HL60 cells assessed as appearance of apoptotic bodies at 1 uM after 6 hrs by Hoechst 33258 staining based fluorescence microscopy; assay type: functional, cell-based
[38] = tested on: HL-60; assay: Induction of apoptosis in human HL60 cells assessed as chromatin condensation at 1 uM after 6 hrs by Hoechst 33258 staining based fluorescence microscopy; assay type: functional, cell-based
[39] = tested on: MOLT-3; assay: Cytotoxicity against human MOLT3 cells after 4 hrs by MTT assay; assay type: functional, cell-based
[40] = tested on: U-937; assay: Cytotoxicity against human U937 cells after 4 hrs by MTT assay; assay type: functional, cell-based
[41] = tested on: HL-60; assay: Cytotoxicity against human HL60 cells after 4 hrs by MTT assay; assay type: functional, cell-based
[42] = tested on: HeLa; assay: Cytotoxicity against human HeLa cells after 4 days by Coulter counter analysis; assay type: functional, cell-based; details: 96 h
[43] = tested on: CCRF-CEM; assay: Cytotoxicity against human CEM cells after 3 days by Coulter counter analysis; assay type: functional, cell-based; details: 72 h
[44] = tested on: FM3A; assay: Cytotoxicity against mouse FM3A cells after 2 days by Coulter counter analysis; assay type: functional, cell-based; details: 48 h
[45] = tested on: L1210; assay: Cytotoxicity against mouse L1210 cells after 2 days by Coulter counter analysis; assay type: functional, cell-based; details: L1210, 48 h
[46] = tested on: U-937; assay: Induction of apoptosis in human U937 cells assessed as procaspase-7 activation at 1 uM after 6 hrs by Western blot analysis; assay type: functional, cell-based
[47] = tested on: HL-60; assay: Induction of apoptosis in human HL60 cells assessed as procaspase-7 activation at 1 uM after 6 hrs by Western blot analysis; assay type: functional, cell-based
[48] = tested on: MOLT-3; assay: Induction of apoptosis in human MOLT3 cells assessed as procaspase-6 activation at 1 uM after 6 hrs by Western blot analysis; assay type: functional, cell-based
[49] = tested on: U-937; assay: Induction of apoptosis in human U937 cells assessed as hypodiploid DNA content at 3 uM after 6 hrs by propidium iodide staining-based flow cytometry relative to control; assay type: functional

## C=C(Br)C(=O)Nc1cccc(/C=C2\SC(=O)N(Cc3ccccc3)C2=O)c1
[1]
  fold change (FC): >2
[2]
  fold change (FC): >10
[3]
  fold change (FC): >5
[4]
  Activity: Active
[5]
  Activity: Active
[6]
  Activity: Active
[7]
  Activity: Active
[8]
  Activity: Active
[9]
  Activity: Active
[10]
  Activity: Active
[11]
  Activity: Active
[12]
  Activity: Active
[13]
  Activity: Active
[14]
  Activity: Active
[15]
  Activity: Active
[16]
  Activity: Active
[17]
  Activity: Active
[18]
  Activity: Active
[19]
  Activity: Active
[20]
  Activity: Active
[21]
  Activity: Active
[22]
  Activity: Active
[23]
  Activity: Active
[24]
  Activity: Active
[25]
  Activity: Active
[26]
  Activity: Active
[27]
  Activity: Active
[28]
  Activity: Active
[29]
  Activity: Active
[30]
  Activity: Active
[31]
  fold change (FC): 12
[32]
  Activity: inactive
[33]
  Activity: Active
[34]
  Activity: Active
[35]
  Activity: Active
[36]
  Activity: Active
[37]
  Activity: Active
[38]
  Activity: Active
[39]
  Activity: Dose-dependent effect
[39]; MOLT-3, 4 h
  IC50: 600 nM
[40]
  Activity: Dose-dependent effect
[40]; U-937, 4 h
  IC50: 620 nM
[41]
  Activity: Dose-dependent effect
[41]; HL-60, 4 h
  IC50: 690 nM
[42]
  IC50: 1400 nM
[43]
  IC50: 510 nM
[44]
  IC50: 810 nM
[45]
  IC50: 380 nM
[46]
  Activity: Active
[47]
  Activity: Active
[48]
  Activity: Active
[49]
  fold change (FC): 6
